Assay results reported in patent US20240150368A1, “ULK INHIBITORS AND METHODS OF USE THEREOF” (Deciphera Pharmaceuticals, LLC, priority 2022, published 2024).

Key:
ULK1 kinase = biological target: T1, ULK1 kinase (Homo sapiens, UniProt O75385, E37A/K38A); assay: Biochemical assay for ULK1 (coupled pyruvate kinase/lactate dehydrogenase assay); details: 1 mM ATP, 0.1 nM ULK1; read-out: ULK1 (inhibition of biochemical activity), IC50
T1 construct: (residues 1-283; ID NO: 1); purchased Beryllium
T1 sequence (O75385 1-283 E37A/K38A): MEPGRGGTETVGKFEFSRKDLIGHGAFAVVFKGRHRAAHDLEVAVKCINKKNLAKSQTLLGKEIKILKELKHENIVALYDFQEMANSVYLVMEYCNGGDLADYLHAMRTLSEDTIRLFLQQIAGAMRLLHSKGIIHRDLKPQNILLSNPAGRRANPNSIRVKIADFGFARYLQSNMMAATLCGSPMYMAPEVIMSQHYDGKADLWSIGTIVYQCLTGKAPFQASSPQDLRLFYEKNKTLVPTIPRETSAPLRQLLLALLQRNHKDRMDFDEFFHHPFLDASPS
Procedure, shortened: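 IC50 values were fitted to percent inhibition, normalised with no-compound and known-inhibitor controls, using rates from 2–3 h of a 6 h read at 30 °C. ADP was coupled through pyruvate kinase/lactate dehydrogenase to NADH loss at 340 nm.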

ULK2 kinase = biological target: T2, ULK2 kinase (Homo sapiens, UniProt Q8IYT8); assay: Biochemical assay for ULK2 (coupled pyruvate kinase/lactate dehydrogenase assay); details: 1 mM ATP, 1 nM ULK2; read-out: ULK2 (inhibition of biochemical activity), IC50
T2 construct: (residues 1-306 with N-terminal GST and His tag; ID NO: 2); purchased Signal Chem U02-11G
T2 sequence (Q8IYT8 with tags, fused parts or gaps): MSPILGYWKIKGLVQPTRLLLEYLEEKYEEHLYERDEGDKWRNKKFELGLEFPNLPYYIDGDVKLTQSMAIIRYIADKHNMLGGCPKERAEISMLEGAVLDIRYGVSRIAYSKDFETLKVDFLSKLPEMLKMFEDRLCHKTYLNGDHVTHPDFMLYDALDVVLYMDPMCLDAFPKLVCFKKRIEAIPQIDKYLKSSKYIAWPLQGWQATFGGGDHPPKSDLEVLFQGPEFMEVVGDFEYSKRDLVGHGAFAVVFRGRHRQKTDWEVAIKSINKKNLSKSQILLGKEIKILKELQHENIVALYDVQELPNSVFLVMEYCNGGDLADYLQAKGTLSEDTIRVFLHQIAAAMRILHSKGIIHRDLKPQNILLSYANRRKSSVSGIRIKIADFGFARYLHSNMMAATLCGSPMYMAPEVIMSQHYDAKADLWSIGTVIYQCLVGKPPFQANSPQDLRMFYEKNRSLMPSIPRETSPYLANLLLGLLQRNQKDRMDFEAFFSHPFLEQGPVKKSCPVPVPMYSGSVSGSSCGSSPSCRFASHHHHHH
Procedure, shortened: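 Continuous PK/LDH-coupled NADH oxidation assay (A340) with 1 nM ULK2, 200 μM ULKtide and 1 mM ATP in Tris pH 7.5, 15 mM MgCl2, 1% DMSO, read 6 h at 30° C. Rates from the 2-3 h window converted to percent inhibition against no-compound and known-inhibitor controls; IC50 by four-parameter sigmoidal fit.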

Structure (SMILES)	IC50 (ULK1 kinase)	IC50 (ULK2 kinase)
CC/C(Nc1cnn(C2CCN(C(C)C)CC2)c1)=C1/C(=O)Nc2ccc(C(=O)NCC3CCC(C4CC4)O3)cc21 (centres unmarked) [Example 3, (Z)—N-((5-cyclopropyltetrahydrofuran-2-yl)methyl)-3-(1-((1-(1-isopropylpiperidin-4-yl)-1H-pyrazol-4-yl)amino)propylidene)-2-oxoindoline-5-carboxamide]	10 to 100 nM	100 to 500 nM
CC/C(Nc1cnn(C(C)C)c1)=C1/C(=O)Nc2ccc(C(=O)NCC3(C)COC3)cc21 [Example 5, (Z)-3-(1-((1-isopropyl-1H-pyrazol-4-yl)amino)propylidene)-N-((3-methyloxetan-3-yl)methyl)-2-oxoindoline-5-carboxamide]	10 to 100 nM	100 to 500 nM
CC/C(Nc1cnn(C2CCN(C(C)C)CC2)c1)=C1/C(=O)Nc2ccc(C(=O)NCC3CCO3)cc21 (centres unmarked) [Example 21]	10 to 100 nM	10 to 100 nM
CC/C(Nc1cnn(C2CCN(C(C)C)CC2)c1)=C1/C(=O)Nc2ccc(C(=O)NCC(C)(C)OC)cc21 [Example 27]	10 to 100 nM	100 to 500 nM
CC/C(Nc1cnn(C2CCN(C(C)C)CC2)c1)=C1/C(=O)Nc2ccc(C(=O)NCC(C)(C)O)cc21 [Example 28]	10 to 100 nM	10 to 100 nM
CC/C(Nc1cnn(C)c1)=C1/C(=O)Nc2ccc(C(=O)NC[C@H]3CCCO3)cc21 [Example 55]	10 to 100 nM	100 to 500 nM
CC/C(Nc1cnc(N2CCN(C(C)C)CC2)cn1)=C1/C(=O)Nc2ccc(C(=O)NCC(F)(F)F)cc21 [Example 94]	10 to 100 nM	10 to 100 nM
CC/C(Nc1ccc(N2CCN(C(C)C)CC2)cc1)=C1/C(=O)Nc2cc(F)c(C(=O)NCC(F)(F)F)cc21 [Example 100]	100 to 500 nM	100 to 500 nM
CC/C(Nc1cnn(CCOC)c1)=C1/C(=O)Nc2ccc(C(=O)NCC(F)(F)F)cc21 [Example 102]	10 to 100 nM	10 to 100 nM
CC/C(Nc1cn[nH]c1)=C1/C(=O)Nc2ccc(C(=O)NCC(F)(F)F)cc21 [Example 108]	10 to 100 nM	10 to 100 nM
CC/C(Nc1cnn(C(C)C)c1)=C1/C(=O)Nc2ccc(C(=O)NCC(F)F)cc21 [Example 112]	10 to 100 nM	10 to 100 nM
CC/C(Nc1cnn(C2CC2)c1)=C1/C(=O)Nc2ccc(C(=O)NCC(F)(F)F)cc21 [Example 116]	10 to 100 nM	10 to 100 nM
CC/C(Nc1cn(C(C)C)nn1)=C1/C(=O)Nc2ccc(C(=O)NCC(F)(F)F)cc21 [Example 122]	10 to 100 nM	10 to 100 nM
CC/C(Nc1cccnc1)=C1/C(=O)Nc2ccc(C(=O)NCC(F)(F)F)cc21 [Example 124]	100 to 500 nM	> 500 nM
CC/C(Nc1cnn(C(C)C)c1)=C1/C(=O)Nc2ccc(C(=O)N(C)CC(F)(F)F)cc21 [Example 125]	10 to 100 nM	10 to 100 nM
CC/C(Nc1cnn(C(C)C)c1)=C1/C(=O)Nc2ccc(C(=O)NCCOC)cc21 [Example 126]	10 to 100 nM	100 to 500 nM
CC/C(Nc1cnn(C(C)C)c1)=C1/C(=O)Nc2ccc(C(=O)NCCC#N)cc21 [Example 127]	10 to 100 nM	10 to 100 nM
CC/C(Nc1cnn(C(C)C)c1)=C1/C(=O)Nc2ccc(C(=O)NC[C@@H](C)OC)cc21 [Example 128]	10 to 100 nM	100 to 500 nM
CC/C(Nc1cnn(C(C)C)c1)=C1/C(=O)Nc2ccc(C(=O)NCCOC(F)(F)F)cc21 [Example 136]	≤ 10 nM	10 to 100 nM
CC/C(Nc1cnn(C(C)C)c1)=C1/C(=O)Nc2ccc(C(=O)NCC3CCC(C)(C)O3)cc21 (centres unmarked) [Example 137]	≤ 10 nM	10 to 100 nM
CC/C(Nc1cnn(C(C)C)c1)=C1/C(=O)Nc2ccc(C(=O)NCC3CCC4(CCC4)O3)cc21 (centres unmarked) [Example 138]	10 to 100 nM	100 to 500 nM
CC/C(Nc1ccc2nn(C(C)C)cc2c1)=C1/C(=O)Nc2ccc(C(=O)NCC(F)(F)F)cc21 [Example 142]	10 to 100 nM	10 to 100 nM
CC/C(Nc1cnn(C2CC(F)(F)C2)c1)=C1/C(=O)Nc2ccc(C(=O)NCC(F)(F)F)cc21 [Example 144]	≤ 10 nM	10 to 100 nM
CC/C(Nc1ccccn1)=C1/C(=O)Nc2ccc(C(=O)NCC(F)(F)F)cc21 [Example 145]	10 to 100 nM	100 to 500 nM
CC/C(Nc1cnn(C(F)F)c1)=C1/C(=O)Nc2ccc(C(=O)NCC(C)C)cc21 [Example 147]	10 to 100 nM	100 to 500 nM
CC/C(Nc1cnn(C(C)C)c1)=C1/C(=O)Nc2ccc(C(=O)NCC(C)(C)OC)cc21 [Example 148]	10 to 100 nM	100 to 500 nM

Continued, values first:

IC50 (ULK1 kinase)	IC50 (ULK2 kinase)	Structure (SMILES)
≤ 10 nM	10 to 100 nM	CC/C(Nc1cnn(C2CCN(C(C)C)CC2)c1)=C1/C(=O)Nc2ccc(C(=O)NC3CC(F)(F)C3)cc21 [Example 29]
≤ 10 nM	≤ 10 nM	CC/C(Nc1cnn(C2CCN(C(C)C)CC2)c1)=C1/C(=O)Nc2ccc(C(=O)NCC3CC(F)(F)C3)cc21 [Example 30]
≤ 10 nM	≤ 10 nM	CC/C(Nc1cnn(C2CCN(C(C)C)CC2)c1)=C1/C(=O)Nc2ccc(C(=O)NCCC(F)(F)F)cc21 [Example 31]
≤ 10 nM	10 to 100 nM	CC/C(Nc1cnn(C2CCN(C3CCOCC3)CC2)c1)=C1/C(=O)Nc2ccc(C(=O)NCC(C)C)cc21 [Example 37]
≤ 10 nM	10 to 100 nM	CC/C(Nc1cnn(C2CCN(C(C)C)CC2)c1)=C1/C(=O)Nc2ccc(C(=O)NCC3CC3)cc21 [Example 42]
≤ 10 nM	≤ 10 nM	CC/C(Nc1cnn(C2CCN(C(C)C)CC2)c1)=C1/C(=O)Nc2ccc(C(=O)NCC3CCCC3)cc21 [Example 44]
≤ 10 nM	10 to 100 nM	CC/C(Nc1cnn(C2CCN(C)CC2)c1)=C1/C(=O)Nc2ccc(C(=O)NC[C@H]3CCCO3)cc21 [Example 51]
≤ 10 nM	10 to 100 nM	CC/C(Nc1ccc(N2CC3(CN(C)C3)C2)cc1)=C1/C(=O)Nc2ccc(C(=O)NCC(F)(F)F)cc21 [Example 62]
≤ 10 nM	10 to 100 nM	CC/C(Nc1cnn(C(C)C)c1)=C1/C(=O)Nc2ccc(C(=O)NC[C@H]3CCCO3)cc21 [Example 95]
≤ 10 nM	10 to 100 nM	C/C(Nc1cnn(C(C)C)c1)=C1/C(=O)Nc2ccc(C(=O)NCC(F)(F)F)cc21 [Example 101]
≤ 10 nM	10 to 100 nM	CC/C(Nc1cnn(CCN(C)C)c1)=C1/C(=O)Nc2ccc(C(=O)NCC(F)(F)F)cc21 [Example 103]
≤ 10 nM	10 to 100 nM	CC/C(Nc1cnn([C@H]2CCOC2)c1)=C1/C(=O)Nc2ccc(C(=O)NCC(F)(F)F)cc21 [Example 104]
≤ 10 nM	10 to 100 nM	CC/C(Nc1cnn([C@@H]2CCOC2)c1)=C1/C(=O)Nc2ccc(C(=O)NCC(F)(F)F)cc21 [Example 105]
≤ 10 nM	10 to 100 nM	CC/C(Nc1cnn(C2CCOCC2)c1)=C1/C(=O)Nc2ccc(C(=O)NCC(F)(F)F)cc21 [Example 106]
≤ 10 nM	10 to 100 nM	CC/C(Nc1cnn(C2COC2)c1)=C1/C(=O)Nc2ccc(C(=O)NCC(F)(F)F)cc21 [Example 118]
≤ 10 nM	10 to 100 nM	CC/C(Nc1cnn(C(C)C)c1)=C1/C(=O)Nc2ccc(C(=O)N[C@H](C)C(F)(F)F)cc21 [Example 119]
≤ 10 nM	10 to 100 nM	CC/C(Nc1cnn(C(C)C)c1)=C1/C(=O)Nc2ccc(C(=O)NCC3CC(F)(F)C3)cc21 [Example 134]
